Measurements: article PMC9250238 (BMC Complementary Medicine and Therapies, 2022)
Like-named read-outs stand apart in the source and are kept apart here.

Assays:
[1] = target: T1, α-glucosidase (Saccharomyces cerevisiae) (Saccharomyces cerevisiae, UniProt P53341); assay: Kinetic test for α-glucosidase (Lineweaver–Burk)
Procedure: A measured amount of pNPG powder was dissolved at 2 mg/mL in 0.01 M phosphate buffer (pH = 6.8), and then 50 μL of the pNPG solution was mixed with an equal volume of isolated compounds from D. angustifolia Roxb, which were diluted to 4 mM. After being kept at 37 °C for 10 min, 25 μL of α-glucosidase (0.5 U/mL) was added. Following another 10 min incubation at 37 °C, the reaction was stopped with 125 μL of 0.2 M Na2CO3, and the absorbance at 410 nm of each sample (converted pNP) was measured via a microplate reader (BioTek ELX-800, USA). […] To acquire the inhibition type and related parameters of those inhibitors, kinetic assays were carried out, and the conditions of enzymatic reactions are detailed in the above section, in which the amount of enzymes was fixed. With an increasing amount of substrate, the amount of hydrolysed pNPG or starch in the presence of compounds (concentration gradient was established on the basis of their IC50 value) was quantified to create Lineweaver–Burk plots.

[2] = target: T1, α-glucosidase (Saccharomyces cerevisiae); assay: biochemical
Procedure: (§3) α-Glucosidase inhibitor screening was conducted according to a previously reported procedure with slight modifications [20]. A measured amount of pNPG powder was dissolved at 2 mg/mL in 0.01 M phosphate buffer (pH = 6.8), and then 50 μL of the pNPG solution was mixed with an equal volume of isolated compounds from D. angustifolia Roxb, which were diluted to 4 mM. After being kept at 37 °C for 10 min, 25 μL of α-glucosidase (0.5 U/mL) was added. Following another 10 min incubation at 37 °C, the reaction was stopped with 125 μL of 0.2 M Na2CO3, and the absorbance at 410 nm of each sample (converted pNP) was measured via a microplate reader (BioTek ELX-800, USA).

[3] = target: T2, α-amylase (porcine pancreas) (Sus scrofa, UniProt P00690); assay: Combined inhibition of acarbose and selected flavonoids against α-amylase (CompuSyn CI); assay type: biochemical; design: purchased Sigma–Aldrich; host or cells: porcine pancreas; details: CI >1.1 antagonistic, 0.9-1.1 additive, <0.9 synergistic
T2 sequence (P00690 16-511): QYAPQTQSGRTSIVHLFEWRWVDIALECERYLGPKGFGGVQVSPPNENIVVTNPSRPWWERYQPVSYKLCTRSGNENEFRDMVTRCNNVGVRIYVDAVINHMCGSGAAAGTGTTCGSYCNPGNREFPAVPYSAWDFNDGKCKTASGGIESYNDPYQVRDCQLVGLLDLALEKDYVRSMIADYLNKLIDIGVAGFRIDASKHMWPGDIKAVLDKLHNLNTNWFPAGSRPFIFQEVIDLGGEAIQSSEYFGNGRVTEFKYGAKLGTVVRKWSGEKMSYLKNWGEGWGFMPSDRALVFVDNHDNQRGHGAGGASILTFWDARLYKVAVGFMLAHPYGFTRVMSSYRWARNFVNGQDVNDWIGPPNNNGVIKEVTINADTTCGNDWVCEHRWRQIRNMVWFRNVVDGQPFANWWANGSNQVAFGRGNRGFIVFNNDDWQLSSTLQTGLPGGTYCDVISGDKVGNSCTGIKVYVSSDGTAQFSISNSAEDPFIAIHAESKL
Procedure: (§1) Changes in α-amylase activities were quantitatively analysed via a method based on starch-iodine colorimetric detection. […] A mixture of 40 μL of starch solution and 40 μL of selected compounds was maintained at 37 °C for 10 min, and 80 μL α-amylase (5 U/mL) was added to start the reaction. After 30 min at 37 °C, terminations were achieved using 40 μL of 1 M HCl.
(§2) A combination index (CI) was employed to evaluate the impacts of binary inhibitors on α-glucosidase and α-amylase. […] When the CI values were above 1.1, between 0.9 and 1.1, and below 0.9, the effects were defined as antagonistic, additive, and synergistic.

[4] = target: T1, α-glucosidase (Saccharomyces cerevisiae); assay: Combined inhibition of acarbose and selected compounds against α-glucosidase (CompuSyn CI); assay type: biochemical; design: purchased Sigma–Aldrich; details: for Type of interaction with acarbose against α-glucosidase: CI >1.1 antagonistic, 0.9-1.1 additive, <0.9 synergistic; for CI values against α-glucosidase: combination with acarbose, over tested concentrations
Excerpt: as §2

[5] = target: T2, α-amylase (porcine pancreas); assay: α-Amylase inhibition assay (starch-iodine); details: for IC50 against α-amylase (result in words): in the test concentration range
Procedure: Changes in α-amylase activities were quantitatively analysed via a method based on starch-iodine colorimetric detection [21]. […] A mixture of 40 μL of starch solution and 40 μL of selected compounds was maintained at 37 °C for 10 min, and 80 μL α-amylase (5 U/mL) was added to start the reaction. After 30 min at 37 °C, terminations were achieved using 40 μL of 1 M HCl.

[6] = target: T2, α-amylase (porcine pancreas); assay: Kinetic test for α-amylase (Lineweaver–Burk); assay type: biochemical; design: purchased Sigma–Aldrich; host or cells: porcine pancreas; details: Lineweaver–Burk plots
Procedure: as §1

[7] = target: T1, α-glucosidase (Saccharomyces cerevisiae); details: read-out: IC50 against α-glucosidase; in vitro, pNPG substrate, 37 °C, pH 6.8
Procedure: as §3

T1 sequence (P53341 whole entry): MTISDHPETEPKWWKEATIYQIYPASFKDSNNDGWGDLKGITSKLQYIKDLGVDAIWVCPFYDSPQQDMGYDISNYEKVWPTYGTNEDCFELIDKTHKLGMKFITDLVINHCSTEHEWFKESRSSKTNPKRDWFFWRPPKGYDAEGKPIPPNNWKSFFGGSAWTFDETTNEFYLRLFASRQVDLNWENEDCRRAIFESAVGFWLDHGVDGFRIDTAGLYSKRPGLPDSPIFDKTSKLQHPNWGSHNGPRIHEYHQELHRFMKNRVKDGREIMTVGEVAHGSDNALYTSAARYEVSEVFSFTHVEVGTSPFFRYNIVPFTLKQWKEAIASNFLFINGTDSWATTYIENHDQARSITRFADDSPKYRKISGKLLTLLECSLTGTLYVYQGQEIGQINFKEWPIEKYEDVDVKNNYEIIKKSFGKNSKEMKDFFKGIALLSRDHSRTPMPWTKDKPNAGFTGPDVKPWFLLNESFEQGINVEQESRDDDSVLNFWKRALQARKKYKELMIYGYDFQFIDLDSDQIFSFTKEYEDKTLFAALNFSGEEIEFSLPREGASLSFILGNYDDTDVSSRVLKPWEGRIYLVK

Question: For `COc1cc(O)c2c(c1C)O[C@H](c1ccc(O)cc1)CC2` [Compound 5, (2S)-4′,5-Dihydroxy-7-methoxy-8-methylflavan], which Ki [1] is on record?
Answer: 39.9 ± 8.47 µM

Question: What about the “Mode of inhibition (α-glucosidase)” value ([1]; Lineweaver–Burk plots) of the same compound?
Answer: noncompetitive inhibitor

Question: And the IC50 [2]?
Answer: 240 ± 30 µM

Question: How did the Ki [1] turn out when `Cc1c(O)cc2c(c1O)C(=O)C(Cc1ccc(O)cc1)CO2` (centres unmarked) [Compound 8, 5,7-dihydroxy-6-methyl-3-(4′-hydroxybenzyl) chroman-4-one] was run?
Answer: 11.2 ± 0.99 µM

Question: What about the “Mode of inhibition (α-glucosidase)” value ([1]; Lineweaver–Burk plots) of the same compound?
Answer: Competitive

Question: And the IC50 [2]?
Answer: 520 ± 10 µM

Question: What about the “Type of interaction with acarbose against α-amylase” value (“Type … against α-amylase” for short) [3] of the same compound?
Answer: additive effects

Question: What about the “Type of interaction with acarbose against α-glucosidase” value (shortened to “Type … against α-glucosidase”) [4] of the same compound?
Answer: synergism

Question: What about the “CI values against α-glucosidase” value [4] of the same compound?
Answer: below 0.9

Question: And the IC50 [5]?
Answer: 5990 ± 60 µM

Question: And the Ki [6]?
Answer: 14100 ± 3530 µM

Question: And the “Mode of inhibition (α-amylase)” value [6]?
Answer: Mixed

Question: Which Ki [1] does the source give for `O=c1c(Cc2ccc(O)cc2)coc2cc(O)cc(O)c12` [Compound 9, 5,7-dihydroxy-3-(4′-hydroxybenzyl) chromone] here?
Answer: 54.4 ± 15.8 µM

Question: What about the “Mode of inhibition (α-glucosidase)” value ([1]; Lineweaver–Burk plots) of the same compound?
Answer: Mixed

Question: What about the IC50 [2] of the same compound?
Answer: 650 ± 10 µM

Question: What about the “Type … against α-amylase” value [3] of the same compound?
Answer: additive effects

Question: And the “Type … against α-glucosidase” value [4]?
Answer: synergism

Question: And the “CI values against α-glucosidase” value [4]?
Answer: below 0.9

Question: What about the IC50 [5] of the same compound?
Answer: 2590 ± 50 µM

Question: What about the Ki [6] of the same compound?
Answer: 8590 ± 1940 µM

Question: And the “Mode of inhibition (α-amylase)” value [6]?
Answer: Mixed

Question: For `O=C(/C=C/c1ccc(O)cc1)NCCc1ccc(O)cc1` [Compound 18, trans-N-p-coumaroyltyramine], which Ki [1] is on record?
Answer: 21.1 ± 12.2 µM

Question: What about the “Mode of inhibition (α-glucosidase)” value ([1]; Lineweaver–Burk plots) of the same compound?
Answer: Uncompetitive

Question: And the IC50 [2]?
Answer: 1.99 ± 0.2 µM

Question: For `CCO[C@@H](c1ccc(O)c(OC)c1)[C@H](O)CO` [Compound 22, erythro-7R,8S-7-O-ethylguaiacyl glycerol], which Ki [1] is on record?
Answer: 7 ± 1.97 µM

Question: What about the “Mode of inhibition (α-glucosidase)” value ([1]; Lineweaver–Burk plots) of the same compound?
Answer: Mixed

Question: And the IC50 [2]?
Answer: 40 ± 4 µM

Question: And the “Type … against α-glucosidase” value [4]?
Answer: synergism

Question: And the “CI values against α-glucosidase” value [4]?
Answer: below 0.9

Question: And the “IC50 against α-amylase (result in words)” value [5]?
Answer: did not yield 50% inhibition

Question: Which results are given for `Cc1c(Cl)c(O)cc(O)c1Cl` [Compound 24, 4,6-dichloro-5-methyl-benzene-1,3-diol]?
Answer: Ki [1]: 44 ± 0.88 µM; Mode of inhibition (α-glucosidase) ([1]; Lineweaver–Burk plots): Mixed; IC50 [2]: 780 ± 30 µM; Type of interaction with acarbose against α-glucosidase [4]: moderate additive effects; IC50 against α-amylase (result in words) [5]: did not yield 50% inhibition

Question: With “(2S)-4′-hydroxy-5,7-dimethoxy-8-methylflavan [Compound 6]” as the compound, how does the “Mode of inhibition (α-glucosidase)” value ([1]; Lineweaver–Burk plots) read?
Answer: Mixed

Question: And the Ki ([1]; read-out: Ki (α-glucosidase), Lineweaver–Burk plots)?
Answer: 57.8 ± 1.67 µM

Question: And the IC50 [7]?
Answer: 370 ± 20 µM

Question: And the “Type … against α-amylase” value [3]?
Answer: additive effects

Question: And the “Type … against α-glucosidase” value [4]?
Answer: slight antagonism

Question: And the “CI (combination index) against α-glucosidase” value ([4]; highest concentration pair (about IC50), acarbose 5 mM, No.6/No.8 0.5 mM, No.9/No.24 1 mM, No.22 50 μM)?
Answer: 1.12

Question: What about the IC50 ([5]; read-out: IC50 against α-amylase, in vitro, starch-iodine method, 37 °C) of the same compound?
Answer: 6030 ± 270 µM

Question: And the Ki [6]?
Answer: 27500 ± 3510 µM

Question: And the “Mode of inhibition (α-amylase)” value [6]?
Answer: Mixed
